Several values for one entry are separate records, joined by “and”; a condition that tells them apart may be missing. Equal entries are not always repeated. Entries after “also recorded” stand apart in the source; their conditions may differ.
Columns and labels:
[1] = target: T1, VEGF Receptor 2 (Homo sapiens, UniProt P35968); test: VEGF Receptor 2 inhibition assay (HTScan VEGF receptor 2 kinase assay kit); type: biochemical; conditions: 100 ng active VEGFR2
T1 construct: purchased Cell Signaling Technology
Protocol: (§1) After starvation in ECGM medium without serum overnight, HUVEC cells were washed with 1×PBS twice, followed with incubation in M199 medium. HUVEC cells were then treated with 1 nM of GA and/or 4 nM of VEGF for 5 minutes, then subjected to immunoprecipitation using anti-VEGFR2 antibody. Anti-phosphotyrosine antibody was used for the detection of phosphorylation of the tyrosine residue of VEGFR2. […] Reaction cocktail containing 100 ng of active VEGFR2 was incubated with different concentrations of GA for 5 minutes at room temperature. Substrate peptide cocktail was added to the pre-incubated reaction cocktail/GA compound. After incubation at room temperature for 30 minutes, stop buffer was added to halt the reaction. 25 μl of each reaction was then transferred with 75 μl dH2O per well into a 96-well streptavidin coated plate and incubated at room temperature for 60 minutes. […] The stop solution was added and the plate was detected at 405 nm. […]
12.5 μl of the 4× reaction cocktail containing 100 ng VEGF Receptor 2 (supplied from the HTScan® VEGF receptor 2 kinase assay kit, Cell Signaling Technology, USA) was incubated with 12.5 μl/tube of GA for 5 minutes at room temperature. […] The plate was then detected at 405 nm with VERSAMAX microplate reader (Molecular Devices). […]

[2] = target: T2, VEGFR2 (Homo sapiens, UniProt P35968); test: VEGFR2 tyrosine phosphorylation in VEGF stimulated HUVEC cells (immunoprecipitation, Western blotting); type: cell-based; conditions: 1 nM GA, 4 nM VEGF, 5 minutes
T2 construct: endogenous in cells; host or cells: HUVEC
Protocol: as §1
VEGFR2 is the primary receptor in VEGF signaling pathway that regulates endothelial cell proliferation, migration, differentiation, tube formation, and angiogenesis. […] HUVEC cells were stimulated with VEGF; phosphorylation and activation of VEGFR2 was detected by immunoprecipitation with anti-VEGFR2 (Flk-1) antibody and by Western blotting with anti-pTyr-antibody for phosphorylation of VEGFR2.

[3] = tested on: c-Src; test: c-Src phosphorylation in HUVEC cells (immunoprecipitation, Western blotting); type: cell-based, human; conditions: HUVEC cells with or without VEGF, GA 1-40 nM, 5 minutes
Protocol: as §1
HUVEC cells pretreated with or without 4 nM VEGF for 5 min were treated with or without different concentrations of GA for another 5 minutes. […] Anti-cleaved caspase 3 antibody (Santa Cruz Biotech) was used for detecting cleaved caspase 3 and polyADP ribose polymerase (PARP) cleavage was detected by an anti-PARP p85 fragment (Promega) in apoptosis assays.

[4] = tested on: PC3 human prostate tumor cells in SCID male mice; type: in vivo
Protocol: The 5-6 week old severe combined immune deficiency (SCID) male mice (ordered from NIH, each weighing about 20 g) were divided into groups of five mice per group. Log-phase PC3 human prostate tumor cells were subcutaneously injected (2×10^6 cell per mouse) into the mice. After the tumors had become established (about 50 mm^3), the mice were subcutaneously injected with or without 3 mg/kg GA every day. The mice body weights and tumor sizes were recorded every day and the tumor sizes were determined by Vernier caliper measurements and calculated as length×width×height. After 15 days, mice with subcutaneous (hereinafter, s.c.) tumors no greater than 1.5 cm in diameter were sacrificed in accordance with University of California Los Angeles Animal Rights Committee Guidelines. The tumors were removed and fixed with Histochoice® MB (Molecular Biology) tissue fixative (Amresco®) and embedded with paraffin. The 5 μm sections were performed specific blood vessel staining with CHEMICON's Blood Vessel Staining Kit (von Willebrand Factor, Chemicon International, blood vessel staining kit, peroxidase system). Images were taken with a ZEISS Axioskop 40 photomicroscope. The number of blood vessels in the high power fields (HPF, 200×) was counted (plug number=4-5, t-test, p<0.005).

[5] = tested on: mouse cornea; test: VEGF induced corneal angiogenesis, mouse corneal model; type: in vivo; conditions: 2.5 μg/ml GA, 160 ng/ml VEGF

T2 sequence (P35968 20-1356): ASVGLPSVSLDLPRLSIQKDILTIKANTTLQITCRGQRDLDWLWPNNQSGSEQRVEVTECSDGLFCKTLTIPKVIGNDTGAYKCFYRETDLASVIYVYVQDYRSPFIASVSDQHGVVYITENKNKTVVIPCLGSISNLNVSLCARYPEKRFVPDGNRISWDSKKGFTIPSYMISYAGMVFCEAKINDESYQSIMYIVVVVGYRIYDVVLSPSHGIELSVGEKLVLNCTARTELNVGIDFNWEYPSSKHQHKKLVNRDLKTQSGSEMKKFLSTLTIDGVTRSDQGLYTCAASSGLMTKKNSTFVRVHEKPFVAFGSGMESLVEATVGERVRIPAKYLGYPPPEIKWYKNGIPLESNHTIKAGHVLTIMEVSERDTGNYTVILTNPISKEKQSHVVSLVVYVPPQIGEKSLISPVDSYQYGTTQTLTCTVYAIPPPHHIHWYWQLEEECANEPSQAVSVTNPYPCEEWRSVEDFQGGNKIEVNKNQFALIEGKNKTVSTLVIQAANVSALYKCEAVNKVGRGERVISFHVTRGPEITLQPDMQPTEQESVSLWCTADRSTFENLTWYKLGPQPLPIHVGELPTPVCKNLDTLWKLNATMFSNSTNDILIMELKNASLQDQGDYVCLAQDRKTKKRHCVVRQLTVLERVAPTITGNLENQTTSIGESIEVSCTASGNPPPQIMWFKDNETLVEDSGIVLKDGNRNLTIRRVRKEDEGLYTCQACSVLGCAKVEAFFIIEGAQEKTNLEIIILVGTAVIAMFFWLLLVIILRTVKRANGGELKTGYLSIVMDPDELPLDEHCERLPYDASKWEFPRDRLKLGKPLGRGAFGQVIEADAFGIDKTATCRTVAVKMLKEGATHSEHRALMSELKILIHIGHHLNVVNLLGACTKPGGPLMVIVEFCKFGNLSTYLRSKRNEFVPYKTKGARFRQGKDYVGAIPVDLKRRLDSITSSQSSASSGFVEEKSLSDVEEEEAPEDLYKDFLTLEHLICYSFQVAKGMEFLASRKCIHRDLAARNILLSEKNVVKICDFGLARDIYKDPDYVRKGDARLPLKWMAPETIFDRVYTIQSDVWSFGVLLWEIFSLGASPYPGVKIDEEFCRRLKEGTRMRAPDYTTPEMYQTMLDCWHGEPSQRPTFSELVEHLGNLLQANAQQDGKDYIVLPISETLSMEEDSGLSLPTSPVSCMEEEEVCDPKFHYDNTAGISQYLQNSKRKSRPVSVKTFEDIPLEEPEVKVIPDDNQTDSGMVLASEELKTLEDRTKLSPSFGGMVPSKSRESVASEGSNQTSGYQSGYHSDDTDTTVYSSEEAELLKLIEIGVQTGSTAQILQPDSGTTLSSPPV
T1 sequence (P35968 789-1356 limits assumed): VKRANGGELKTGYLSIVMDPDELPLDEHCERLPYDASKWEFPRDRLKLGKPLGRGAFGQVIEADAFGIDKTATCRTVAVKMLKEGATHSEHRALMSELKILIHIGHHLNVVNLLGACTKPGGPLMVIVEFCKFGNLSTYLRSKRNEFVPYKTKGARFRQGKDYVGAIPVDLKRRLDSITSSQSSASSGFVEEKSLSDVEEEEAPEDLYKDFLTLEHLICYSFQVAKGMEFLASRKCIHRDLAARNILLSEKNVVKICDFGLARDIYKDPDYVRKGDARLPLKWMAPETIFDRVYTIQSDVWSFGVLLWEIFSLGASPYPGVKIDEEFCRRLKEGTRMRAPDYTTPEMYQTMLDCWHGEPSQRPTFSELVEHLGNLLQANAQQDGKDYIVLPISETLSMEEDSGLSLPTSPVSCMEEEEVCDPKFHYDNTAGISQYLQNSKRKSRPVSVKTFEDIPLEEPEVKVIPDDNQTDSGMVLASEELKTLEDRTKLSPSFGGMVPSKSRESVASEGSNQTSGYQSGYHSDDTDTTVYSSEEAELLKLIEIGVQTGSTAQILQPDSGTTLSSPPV

## CC(C)=CCC[C@]1(C)C=Cc2c(O)c3c(c(CC=C(C)C)c2O1)O[C@]12C(=C[C@@H]4C[C@H]1C(C)(C)O[C@@]2(C/C=C(/C)C(=O)O)C4=O)C3=O [GA, gambogic acid]
[1]
  IC50: 0.012 nM
[2]
  Phosphorylation and activation of VEGFR2 in HUVEC cells: dramatically inhibited the phosphorylation of VEGFR2; also recorded: strongly inhibited VEGFR2 kinase activity
[3]
  Phosphorylation and activation of c-Src: significantly inhibited the phosphorylation and activation
[4]; 3 mg/kg GA every day s.c., 15 days
  Tumor size after 15 days: 169.1±25.6 mm^3 and 127.4±25.6 mm^3
[4]; 3 mg/kg GA every day, 15 days, HPF 200×
  Average vessel number in tumors: 1.8±1.3 per HPF
[4]; GA treated group, before 3 mg/kg GA every day
  Tumor size at start of treatment: 51.74±3.8 mm^3
[4]; mouse, in vivo
  Average body weight at start: 22.4 ± 1 g
[5]
  VEGF induced corneal angiogenesis: significantly inhibits corneal angiogenesis; also recorded: dramatically inhibits
